Laboratory results taken from ChEMBL document CHEMBL5678818, “Discovery of potent SOS1 inhibitors that block RAS activation via disruption of the RAS-SOS1 interaction” (Proc Natl Acad Sci U S A, 2019).

Assays:
[1] = target: Cyclin-dependent kinase-like 1 (Homo sapiens) (UniProt Q00532); experiment: Inhibition of CDKL1 (unknown origin) assessed as residual activity at 1000 nM by KINOMEscan analysis relative to control
[2] = test system: Epidermal growth factor receptor (Homo sapiens), P00533 [G719C]; experiment: Inhibition of EGFR G719C mutant (unknown origin) assessed as residual activity at 1000 nM by KINOMEscan analysis relative to control
[3] = target: Tyrosine-protein kinase HCK (Homo sapiens) (UniProt P08631); experiment: Inhibition of HCK (unknown origin) assessed as residual activity at 1000 nM by KINOMEscan analysis relative to control
[4] = target: Insulin receptor-related protein (Homo sapiens) (UniProt P14616); experiment: Inhibition of INSRR (unknown origin) assessed as residual activity at 1000 nM by KINOMEscan analysis relative to control
[5] = test system: Mast/stem cell growth factor receptor Kit (Homo sapiens), P10721 [D816V]; experiment: Inhibition of KIT D816V mutant (unknown origin) assessed as residual activity at 1000 nM by KINOMEscan analysis relative to control
[6] = test system: Mast/stem cell growth factor receptor Kit (Homo sapiens), P10721 [V559D]; experiment: Inhibition of KIT V559D mutant (unknown origin) assessed as residual activity at 1000 nM by KINOMEscan analysis relative to control
[7] = target: T1, Mitogen-activated protein kinase kinase kinase 2 (Homo sapiens) (UniProt Q9Y2U5); experiment: Inhibition of MAP3K2 (unknown origin) assessed as residual activity at 1000 nM by KINOMEscan analysis relative to control
T1 sequence (whole entry): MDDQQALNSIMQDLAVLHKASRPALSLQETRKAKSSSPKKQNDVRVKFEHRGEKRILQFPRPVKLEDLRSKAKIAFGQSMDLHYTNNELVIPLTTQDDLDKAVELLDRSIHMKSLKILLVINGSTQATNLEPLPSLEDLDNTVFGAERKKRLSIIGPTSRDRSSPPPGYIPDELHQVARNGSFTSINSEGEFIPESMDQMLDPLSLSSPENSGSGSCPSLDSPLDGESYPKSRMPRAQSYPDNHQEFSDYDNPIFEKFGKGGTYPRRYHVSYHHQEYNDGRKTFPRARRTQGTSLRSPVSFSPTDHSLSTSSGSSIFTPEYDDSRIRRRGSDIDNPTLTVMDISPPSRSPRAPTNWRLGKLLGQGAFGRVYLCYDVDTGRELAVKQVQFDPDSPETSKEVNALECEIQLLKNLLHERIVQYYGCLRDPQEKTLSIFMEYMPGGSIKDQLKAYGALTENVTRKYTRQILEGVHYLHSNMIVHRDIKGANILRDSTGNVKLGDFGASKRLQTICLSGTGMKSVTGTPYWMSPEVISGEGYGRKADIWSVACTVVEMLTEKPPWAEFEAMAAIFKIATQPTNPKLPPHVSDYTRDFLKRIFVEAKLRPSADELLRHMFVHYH

[8] = test system: Hepatocyte growth factor receptor (Homo sapiens), P08581 [Y1235D]; experiment: Inhibition of MET Y1235D mutant (unknown origin) assessed as residual activity at 1000 nM by KINOMEscan analysis relative to control
[9] = target: Serine/threonine-protein kinase PAK 4 (Homo sapiens) (UniProt O96013); experiment: Inhibition of PAK4 (unknown origin) assessed as residual activity at 1000 nM by KINOMEscan analysis relative to control
[10] = target: T2, Phosphatidylinositol 3-kinase C2 domain-containing subunit gamma (Homo sapiens) (UniProt O75747); experiment: Inhibition of PIK3C2G (unknown origin) assessed as residual activity at 1000 nM by KINOMEscan analysis relative to control
T2 sequence (whole entry): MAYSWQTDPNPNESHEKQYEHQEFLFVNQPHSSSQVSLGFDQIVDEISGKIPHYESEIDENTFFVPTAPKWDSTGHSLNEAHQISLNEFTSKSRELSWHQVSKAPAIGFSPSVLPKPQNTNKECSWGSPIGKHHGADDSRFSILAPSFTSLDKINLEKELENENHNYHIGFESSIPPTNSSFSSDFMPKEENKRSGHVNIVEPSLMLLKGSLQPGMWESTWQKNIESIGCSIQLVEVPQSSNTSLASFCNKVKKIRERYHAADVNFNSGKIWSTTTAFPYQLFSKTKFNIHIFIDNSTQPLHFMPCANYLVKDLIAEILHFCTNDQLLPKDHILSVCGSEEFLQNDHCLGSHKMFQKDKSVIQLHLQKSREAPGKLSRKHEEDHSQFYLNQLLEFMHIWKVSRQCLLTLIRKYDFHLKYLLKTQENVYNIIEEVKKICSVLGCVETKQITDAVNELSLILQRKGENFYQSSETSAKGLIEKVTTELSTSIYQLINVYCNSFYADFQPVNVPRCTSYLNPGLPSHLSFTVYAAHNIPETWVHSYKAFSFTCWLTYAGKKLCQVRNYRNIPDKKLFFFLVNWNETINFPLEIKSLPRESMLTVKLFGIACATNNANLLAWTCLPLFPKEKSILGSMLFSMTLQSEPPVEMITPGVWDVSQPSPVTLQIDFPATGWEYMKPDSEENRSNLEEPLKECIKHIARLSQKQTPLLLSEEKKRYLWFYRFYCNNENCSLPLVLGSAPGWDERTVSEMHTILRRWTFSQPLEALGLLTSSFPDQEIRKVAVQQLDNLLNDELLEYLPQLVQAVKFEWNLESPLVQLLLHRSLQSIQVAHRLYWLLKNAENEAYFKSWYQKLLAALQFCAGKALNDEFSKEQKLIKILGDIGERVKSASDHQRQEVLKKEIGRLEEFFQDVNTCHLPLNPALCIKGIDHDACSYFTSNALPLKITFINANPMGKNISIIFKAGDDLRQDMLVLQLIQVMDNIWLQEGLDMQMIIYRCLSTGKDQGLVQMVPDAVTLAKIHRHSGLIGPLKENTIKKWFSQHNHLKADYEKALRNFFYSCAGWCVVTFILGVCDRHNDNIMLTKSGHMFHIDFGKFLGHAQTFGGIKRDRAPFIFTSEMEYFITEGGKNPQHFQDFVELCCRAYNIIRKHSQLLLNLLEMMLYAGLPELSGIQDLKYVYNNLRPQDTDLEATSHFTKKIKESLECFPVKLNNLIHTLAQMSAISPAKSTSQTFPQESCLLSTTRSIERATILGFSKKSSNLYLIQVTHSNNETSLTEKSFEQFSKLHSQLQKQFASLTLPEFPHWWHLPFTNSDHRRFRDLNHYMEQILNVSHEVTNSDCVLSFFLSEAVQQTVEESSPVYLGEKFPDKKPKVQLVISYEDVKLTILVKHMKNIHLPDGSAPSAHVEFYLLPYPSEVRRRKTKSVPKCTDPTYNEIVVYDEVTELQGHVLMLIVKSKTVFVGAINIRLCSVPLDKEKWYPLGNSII

[11] = target: Serine/threonine-protein kinase WNK1 (Homo sapiens) (UniProt Q9H4A3); experiment: Inhibition of WNK1 (unknown origin) assessed as residual activity at 1000 nM by KINOMEscan analysis relative to control
Chain of Serine/threonine-protein kinase WNK1 (Homo sapiens) (Q9H4A3 whole entry, looked up): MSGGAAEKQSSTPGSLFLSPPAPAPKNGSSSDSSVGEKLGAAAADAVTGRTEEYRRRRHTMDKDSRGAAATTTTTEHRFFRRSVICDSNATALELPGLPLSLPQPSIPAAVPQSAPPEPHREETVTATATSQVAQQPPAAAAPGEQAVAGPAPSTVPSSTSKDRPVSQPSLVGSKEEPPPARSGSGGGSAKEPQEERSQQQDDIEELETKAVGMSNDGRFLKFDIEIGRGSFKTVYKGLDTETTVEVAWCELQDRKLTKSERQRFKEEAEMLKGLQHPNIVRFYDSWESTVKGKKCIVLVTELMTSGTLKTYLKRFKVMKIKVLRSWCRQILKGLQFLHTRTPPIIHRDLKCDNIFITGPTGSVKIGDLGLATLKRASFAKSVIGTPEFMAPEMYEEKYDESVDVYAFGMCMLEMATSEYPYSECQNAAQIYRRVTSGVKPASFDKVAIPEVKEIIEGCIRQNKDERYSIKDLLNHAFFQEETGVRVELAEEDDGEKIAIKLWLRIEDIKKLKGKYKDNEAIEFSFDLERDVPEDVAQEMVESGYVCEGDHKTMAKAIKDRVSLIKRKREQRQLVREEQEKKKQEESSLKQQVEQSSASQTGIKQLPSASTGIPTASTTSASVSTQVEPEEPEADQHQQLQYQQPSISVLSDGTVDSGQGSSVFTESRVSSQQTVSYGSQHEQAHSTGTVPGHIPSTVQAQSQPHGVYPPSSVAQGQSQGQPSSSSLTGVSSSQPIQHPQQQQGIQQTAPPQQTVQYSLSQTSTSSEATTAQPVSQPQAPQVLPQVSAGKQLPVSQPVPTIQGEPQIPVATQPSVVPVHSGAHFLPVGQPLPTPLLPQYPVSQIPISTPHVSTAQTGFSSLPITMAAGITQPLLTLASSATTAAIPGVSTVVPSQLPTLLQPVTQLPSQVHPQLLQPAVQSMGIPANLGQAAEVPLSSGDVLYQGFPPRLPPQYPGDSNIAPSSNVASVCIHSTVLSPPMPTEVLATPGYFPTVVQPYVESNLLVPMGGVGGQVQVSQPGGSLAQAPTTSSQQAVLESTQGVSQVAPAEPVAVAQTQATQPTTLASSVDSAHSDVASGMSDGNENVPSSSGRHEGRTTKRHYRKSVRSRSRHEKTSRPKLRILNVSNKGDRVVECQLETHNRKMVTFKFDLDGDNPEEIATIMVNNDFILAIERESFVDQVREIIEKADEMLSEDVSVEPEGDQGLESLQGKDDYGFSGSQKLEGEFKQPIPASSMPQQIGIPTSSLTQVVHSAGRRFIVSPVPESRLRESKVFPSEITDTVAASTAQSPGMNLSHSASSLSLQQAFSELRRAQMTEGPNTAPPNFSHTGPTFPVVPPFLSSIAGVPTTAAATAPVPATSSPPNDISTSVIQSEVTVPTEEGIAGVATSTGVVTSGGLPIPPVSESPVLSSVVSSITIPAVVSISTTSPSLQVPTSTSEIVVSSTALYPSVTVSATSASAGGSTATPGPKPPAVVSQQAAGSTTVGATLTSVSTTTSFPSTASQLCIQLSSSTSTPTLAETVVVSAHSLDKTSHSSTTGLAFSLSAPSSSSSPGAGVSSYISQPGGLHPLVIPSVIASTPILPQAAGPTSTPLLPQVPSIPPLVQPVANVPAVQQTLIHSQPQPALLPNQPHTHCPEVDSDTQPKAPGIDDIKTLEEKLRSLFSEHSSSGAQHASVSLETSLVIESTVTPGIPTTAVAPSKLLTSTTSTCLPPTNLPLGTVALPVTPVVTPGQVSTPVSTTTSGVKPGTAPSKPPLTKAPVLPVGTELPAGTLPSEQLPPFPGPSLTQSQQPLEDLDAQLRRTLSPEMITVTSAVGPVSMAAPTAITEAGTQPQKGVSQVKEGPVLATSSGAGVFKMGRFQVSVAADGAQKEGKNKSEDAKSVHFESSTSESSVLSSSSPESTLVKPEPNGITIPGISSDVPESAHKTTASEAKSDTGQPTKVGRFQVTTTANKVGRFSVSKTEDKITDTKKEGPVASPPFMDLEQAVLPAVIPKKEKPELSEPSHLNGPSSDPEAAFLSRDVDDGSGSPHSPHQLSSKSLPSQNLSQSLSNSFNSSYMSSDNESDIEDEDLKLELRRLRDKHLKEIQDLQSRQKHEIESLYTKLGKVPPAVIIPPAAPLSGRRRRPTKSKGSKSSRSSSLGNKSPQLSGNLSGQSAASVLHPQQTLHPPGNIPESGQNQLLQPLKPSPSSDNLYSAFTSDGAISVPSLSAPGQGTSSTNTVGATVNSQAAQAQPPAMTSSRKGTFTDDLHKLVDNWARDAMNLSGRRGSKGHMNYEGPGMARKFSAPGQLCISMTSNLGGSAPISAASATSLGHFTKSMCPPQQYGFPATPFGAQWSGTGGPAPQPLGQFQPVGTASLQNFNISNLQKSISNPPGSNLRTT

Chain of Mast/stem cell growth factor receptor Kit (Homo sapiens), P10721 [D816V] (P10721 whole entry D816V): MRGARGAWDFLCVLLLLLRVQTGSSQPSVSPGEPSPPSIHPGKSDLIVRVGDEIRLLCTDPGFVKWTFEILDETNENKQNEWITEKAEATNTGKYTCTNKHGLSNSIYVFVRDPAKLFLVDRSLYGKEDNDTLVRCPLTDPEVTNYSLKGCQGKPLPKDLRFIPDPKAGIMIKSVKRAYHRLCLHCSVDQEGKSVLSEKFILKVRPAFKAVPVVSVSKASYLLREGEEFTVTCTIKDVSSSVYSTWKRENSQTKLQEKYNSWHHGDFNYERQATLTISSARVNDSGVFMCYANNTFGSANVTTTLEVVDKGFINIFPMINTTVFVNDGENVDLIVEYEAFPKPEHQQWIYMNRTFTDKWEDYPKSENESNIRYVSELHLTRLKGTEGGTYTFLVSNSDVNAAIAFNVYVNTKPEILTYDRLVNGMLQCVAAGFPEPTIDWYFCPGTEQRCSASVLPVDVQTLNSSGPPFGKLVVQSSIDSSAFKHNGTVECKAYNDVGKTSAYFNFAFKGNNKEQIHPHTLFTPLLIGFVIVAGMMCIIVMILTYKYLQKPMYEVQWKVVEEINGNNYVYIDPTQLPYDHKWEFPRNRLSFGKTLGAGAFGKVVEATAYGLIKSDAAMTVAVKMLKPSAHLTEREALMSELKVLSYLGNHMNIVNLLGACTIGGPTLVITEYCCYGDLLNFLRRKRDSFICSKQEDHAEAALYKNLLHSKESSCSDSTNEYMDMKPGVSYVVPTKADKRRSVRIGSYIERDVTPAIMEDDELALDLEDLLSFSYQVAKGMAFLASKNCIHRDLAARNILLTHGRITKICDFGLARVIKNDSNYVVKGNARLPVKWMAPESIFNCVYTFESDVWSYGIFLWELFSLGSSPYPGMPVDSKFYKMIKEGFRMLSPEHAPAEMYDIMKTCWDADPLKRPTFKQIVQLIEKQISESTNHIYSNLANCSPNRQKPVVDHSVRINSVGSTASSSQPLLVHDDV
Chain of Mast/stem cell growth factor receptor Kit (Homo sapiens), P10721 [V559D] (P10721 whole entry V559D): as the sequence (P10721 whole entry D816V) above, with V559D, V816D counted along it
Chain of Insulin receptor-related protein (Homo sapiens) (P14616 27-742 limits assumed): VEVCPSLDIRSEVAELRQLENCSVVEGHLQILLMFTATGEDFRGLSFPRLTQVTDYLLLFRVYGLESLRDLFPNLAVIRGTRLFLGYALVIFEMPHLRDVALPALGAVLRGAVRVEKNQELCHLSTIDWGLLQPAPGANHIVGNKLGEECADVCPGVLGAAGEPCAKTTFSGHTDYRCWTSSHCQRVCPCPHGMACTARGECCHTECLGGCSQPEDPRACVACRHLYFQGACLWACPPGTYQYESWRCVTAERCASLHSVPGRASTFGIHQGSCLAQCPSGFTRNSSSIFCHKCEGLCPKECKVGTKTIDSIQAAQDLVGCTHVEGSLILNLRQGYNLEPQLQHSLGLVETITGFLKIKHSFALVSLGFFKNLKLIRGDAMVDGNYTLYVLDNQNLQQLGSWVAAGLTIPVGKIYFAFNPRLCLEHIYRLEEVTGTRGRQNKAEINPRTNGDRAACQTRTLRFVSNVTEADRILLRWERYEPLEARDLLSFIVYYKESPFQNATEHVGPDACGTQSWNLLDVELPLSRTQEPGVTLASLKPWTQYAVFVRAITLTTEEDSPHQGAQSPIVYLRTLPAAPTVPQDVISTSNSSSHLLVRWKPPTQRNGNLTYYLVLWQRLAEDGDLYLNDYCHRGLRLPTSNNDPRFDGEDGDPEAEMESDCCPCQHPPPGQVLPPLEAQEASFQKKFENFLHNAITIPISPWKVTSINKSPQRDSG
Chain of Insulin receptor-related protein (Homo sapiens) (P14616 747-1297 limits assumed): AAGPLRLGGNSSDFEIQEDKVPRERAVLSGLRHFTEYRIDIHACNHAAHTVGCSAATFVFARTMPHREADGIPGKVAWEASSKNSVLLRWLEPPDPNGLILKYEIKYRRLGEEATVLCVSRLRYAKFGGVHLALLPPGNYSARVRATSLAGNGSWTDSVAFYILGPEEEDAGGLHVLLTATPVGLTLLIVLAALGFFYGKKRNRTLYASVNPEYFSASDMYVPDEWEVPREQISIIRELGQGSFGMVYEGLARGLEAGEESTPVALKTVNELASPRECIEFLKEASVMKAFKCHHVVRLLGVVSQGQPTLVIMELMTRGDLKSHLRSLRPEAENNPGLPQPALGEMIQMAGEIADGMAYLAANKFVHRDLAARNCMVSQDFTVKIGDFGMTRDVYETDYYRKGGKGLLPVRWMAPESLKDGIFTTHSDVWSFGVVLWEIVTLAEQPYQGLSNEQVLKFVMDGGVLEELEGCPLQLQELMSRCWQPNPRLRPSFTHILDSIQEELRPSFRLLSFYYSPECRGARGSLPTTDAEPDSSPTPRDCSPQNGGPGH
Chain of Cyclin-dependent kinase-like 1 (Homo sapiens) (Q00532 whole entry): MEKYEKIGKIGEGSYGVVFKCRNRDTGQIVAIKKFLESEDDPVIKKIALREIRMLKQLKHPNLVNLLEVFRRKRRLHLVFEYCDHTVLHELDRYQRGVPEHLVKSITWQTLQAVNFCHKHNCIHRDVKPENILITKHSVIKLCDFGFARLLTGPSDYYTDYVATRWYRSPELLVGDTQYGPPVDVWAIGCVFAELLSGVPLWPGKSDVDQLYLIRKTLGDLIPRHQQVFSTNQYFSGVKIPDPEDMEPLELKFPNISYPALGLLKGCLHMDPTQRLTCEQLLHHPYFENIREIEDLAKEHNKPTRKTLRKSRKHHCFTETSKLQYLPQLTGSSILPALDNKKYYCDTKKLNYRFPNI

Row | SMILES | Activity [1] [%] | Activity [2] [%] | Activity [3] [%] | Activity [4] [%] | Activity [5] [%] | Activity [6] [%] | Activity [7] [%] | Activity [8] [%] | Activity [9] [%] | Activity [10] [%] | Activity [11] [%]
1 | COc1cc2nc(C)nc(N[C@H](C)c3cccc(-c4cn[nH]c4)c3)c2cc1OC | 73 | 77 | 77 | 97 | 55 | 81 | 76 | 78 | 86 | 87 | 86
2 | COc1cc2ncnc(N[C@H](C)c3cccc4ccccc34)c2cc1OC | 89 | 1.6 | 93 | 93 | 96 | 95 | 100 | 100 | 100 | 35 | 100
